Consider four molecules from patent publication US20250144107A1, “USE OF A PIKFYVE INHIBITOR IN COMBINATION WITH IMMUNOTHERAPY” (The Regents of the University of Michigan, priority 2023, published 2025).

Assay [1] deals with KPC1361 cells. Kind of assay: MHC-I surface expression in Pikfyve-wildtype, Pikfyve-null, Atg5-null or Atg7-null cells. Type of assay: cell-based, mouse. The note with it: Pikfyve-wildtype cells, autophagy inhibition. The source says: FIG. 1F (Left) is line graphs of flow cytometry measuring MHC-I surface expression in KPC1361 cells with or without Pikfyve KO, treated with DMSO, Bafilomycin, chloroquine, Apilimod, or ESK981; (Right) is bar graphs of quantification of flow cytometry measuring MHC-I surface expression in KPC1361 cells with or without Pikfyve KO, treated with DMSO, Bafilomycin, chloroquine, Apilimod, or ESK981.
FIG. 1G (Left) is a line graph of flow cytometry measuring MHC-I surface expression in KPC1361 cells with non-targeting single-guide RNA (control), or single-guide RNAs depleting Atg5 or Atg7, treated with DMSO or Apilimod; (Right) is a bar graph of quantification of flow cytometry measuring MHC-I surface expression in KPC1361 cells with non-targeting single-guide RNA (control), or single-guide RNAs depleting Atg5 or Atg7, treated with DMSO or Apilimod.
Cancer cells or the OVA-expressing cancer cells treated in vitro were harvested from dishes, resuspended in buffer MACS (PBS containing 2% FBS and 2 mM EDTA), and stained with Zombie NIR™ Fixable Viability kit (BioLegend: #423106) and fluorophore-conjugated antibody against MHC-I or PE-conjugated antibody against SIINFEKL bound H-2Kb (BioLegend; catalog #141604), respectively. The cells were next washed twice with 1 ml MACS and fixed with 2% paraformaldehyde in PBS for 15 minutes at room temperature. The cells were then subjected to the flow cytometer (SONY SH800S) for measuring surface expression of MHC-I or SIINFEKL bound H-2Kb, respectively. Antibodies used in this study include anti-H-2Kb (BD Biosciences; catalog #553570) and anti-H-2Db (28-14-8; Thermo Fisher Scientific; catalog #12-5999-82) for KPC1361 and B16-F10, anti-H-2Kd (BD Biosciences; catalog #562004) and anti-H-2Dd (BD Biosciences; catalog #553580) for 4T1, anti-H-2Kq (BD Biosciences; catalog #742296) and anti-H-2Dq/H-2Lq (BD Biosciences; catalog #744853) for MyC-CaP, and anti-HLA-A,B,C (clone w6/32; BioLegend; catalog #311406) for human cancer cells.

The test system of assay [2] is B16F10-OVA tumors. Nature of the assay: B16F10-OVA tumor model with PolyI:C adjuvant. Format: in vivo, mice. The conditions noted are these: treatment after inoculation, each agent alone. How it is done:
FIG. 16F is a series of four line graphs of the Individual growth curves of subcutaneous B16F10-OVA tumor volume following 21 days of pre-treatment with vehicle versus apilimod, 30 mg/kg daily, with or without subcutaneous injection of water versus PolyI:C, 100 μg on Day 1 and Day 14.
FIG. 16H is a series of four line graphs of the Individual growth curves of subcutaneous B16F10-OVA tumor volume in mice treated with vehicle or apilimod, 30 mg/kg daily, with or without a subcutaneous injection of water versus PolyI:C, 100 μg once weekly.
FIG. 26I is a line graph of the subcutaneous tumor volume of B16F10-OVA tumors following 21 days of pre-treatment with vehicle versus apilimod, 30 mg/kg×5 days/week, with or without subcutaneous injection of water versus PolyI:C, 100 μg on Day 1 and Day 14.
FIG. 26J is a line graph of the subcutaneous tumor volume of B16F10-OVA tumors in mice treated with vehicle or apilimod, 30 mg/kg×5 days/week, with or without subcutaneous injection of water versus PolyI:C, 100 μg once weekly.

The test system of assay [3] is cDCs. Kind of assay: Phenotype of cultured cDCs (flow cytometry, western blot). Format: cell-based, mice. The note with it: DCs in vitro, each agent. How it is done: FIG. 13G (Left) is a line graph of the relative median fluorescent intensity of the surface MHC-I on DMSO or apilimod-treated cDCs treated for 20 hours after 6 days of culture. FIG. 13G (Right) is a box and whisker plot of the surface MHC-I on DMSO or apilimod-treated cDCs treated for 20 hours after 6 days of culture
FIG. 13H a western blot showing the total vinculin, loading control, and total MHC-I in DMSO or apilimod-treated, 20 hours, cDC lysates after 6 days of culture.
FIG. 13K (Left) is a line graph of the relative median fluorescent intensity of the surface MHC-II on DMSO or apilimod-treated, 20 hours, cDCs treated after 6 days of culture. FIG. 13K (Right) is a box and whisker plot of the surface MHC-II on DMSO or apilimod-treated, 20 hours, cDCs treated after 6 days of culture.
FIG. 13L a western blot showing the total vinculin, loading control, and total MHC-II in DMSO or apilimod-treated, 20 hours, cDC lysates after 6 days of culture.
FIG. 13N a western blot showing the total histone H3, loading control, and total CD80 and CD86 in apilimod-treated, 20 hours, PIKfyve WT vs. KO cDC lysates after 6 days of culture.
FIG. 13P is a series of six scatter plots of surface CD80 and CD86 on DMSO or apilimod-treated cDCs, with or without 20 hours of PolyI:C, 50 μg/ml, or lipopolysaccharide (LPS), 50 ng/ml, treatment after 6 days of culture.
FIG. 13R a western blot showing the total vinculin, loading control, and total CD40 in DMSO or apilimod-treated, 20 hours, cDC lysates treated with or without additional LPS, 50 ng/ml, after 6 days of culture day 6.
FIG. 19B is a line graph of representative density plot of median fluorescent intensity of surface XCR1 in DMSO or apilimod-treated, 20 hours, cDCs after 6 days of culture.
FIG. 26G is a line graph of the relative median fluorescent intensity of the surface MHC-I, H2-kb, H2-kd, on DMSO or apilimod-treated cDCs with or without PolyI:C, 50 μg/ml or LPS, 50 ng/ml, treatment, 20 hours, after 6 days of culture.
FIG. 26H is a line graph of the relative median fluorescent intensity of the surface MHC-II, MHC-IA-IE, on DMSO or apilimod-treated cDCs with or without PolyI:C, 50 μg/ml or LPS, 50 ng/ml, treatment, 20 hours, after 6 days of culture.
In general terms: In flow cytometry, cells or beads pass a laser one at a time.

With bafilomycin, the MHC-I surface expression entry in assay [1] is “induced”. On to `CCN(CC)CCCC(C)Nc1ccnc2cc(Cl)ccc12` (centres unmarked) [chloroquine], for which, in assay [1], the MHC-I surface expression entry is listed as “induced”.

In the case of PolyI:C, the tumor growth result in assay [2] is given as “modest tumor growth inhibition”. The “MHC-I and MHC-II expression” value in assay [3] was “stimulated”. Take lipopolysaccharide [LPS]: in assay [3], the “MHC-I and MHC-II expression” value is recorded as “stimulated”.
